This note sets out measurements from PubChem BioAssay (NCI).

Test in all cases: DTP human tumour cell line panel, 48 h
Assay [1] has as its system SW-620 colon.
The subject of assay [2] is SF-268 CNS.
For assay [3], the system named is NCI-H522 lung.
Assay [4] concerns SK-MEL-5 melanoma.
Assay [5] relates to SR leukemia.
Assay [6] has as its system OVCAR-3 ovarian.
The test system of assay [7] is DU-145 prostate.
Assay [8] concerns HOP-92 NSCLC.
The test system of assay [9] is A498 renal.
The test system of assay [10] is SNB-19 CNS.

Several values for one entry are separate records, joined by “and”; a condition that tells them apart may be missing. Identical values can stand only once.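 Each compound was tested at five concentrations against cells in 96-well plates for 48 hours. GI50 = concentration required for 50% inhibition of growth. TGI: total growth inhibition.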 Some results are limits rather than exact numbers.

The term GI50 denotes the concentration that inhibits growth by half. One may read the TGI as the concentration giving total growth inhibition. Read a high TGI as lower sensitivity of the cells. Consider `O=C(N1CCC(CN=c2cc3n(-c4ccc(Cl)cc4)c4ccccc4nc-3cc2Nc2ccc(Cl)cc2)CC1)N1CC1`, for which the GI50 in assay [1] was 0.709 µM; in [2] it was 1.3 µM; in [3] it was 1.32 µM; in [4], 1.49 µM; in [5] it was 0.337 µM; in assay [6], 1.1 µM. In addition, the GI50 in [7] was 1.3 µM; in [8], 13.5 µM; in assay [9] it was 1.75 µM. Besides, the TGI in [1] was determined as 2.05 µM; in assay [2], 3.69 µM; in assay [3] it was 2.73 µM; in assay [4] it was 2.81 µM; in [5], 2.25 µM; in assay [6], 2.69 µM. Further, the TGI was determined as 2.65 µM in [7], 37 µM in assay [8] and 3.61 µM in assay [9].

As to `CCOc1ccc(N=Nc2ccc3oc(=O)c(/C(C)=N\NC(=O)CC(=O)Nc4ccc(Cl)cc4)cc3c2)cc1`, the TGI in assay [1] is 38.8 µM; in assay [10], more than 100 µM; in [2] it was 41.5 µM; in assay [3], 50.1 µM; in assay [4] it was 38.7 µM; in assay [5], 25 µM. For the same molecule, the values for the TGI in assay [6] and in [8] were 30.4 µM and 54.9 µM, respectively.

For `CCOC(=O)C1(C(=O)OCC)CSC1`, the TGI in assay [1], in [10], in assay [2], in assay [3], in assay [4] and in [5] was more than 100 µM throughout. In addition, the TGI in [6], in assay [7], in assay [8] and in [9] was more than 100 µM in each case.

For the molecule `CCSc1nc(N2CCCCC2)c2cn[nH]c2n1`, the GI50 in [1] was 40.1 µM; in [10] it was 45.6 µM; in assay [2] it was 23.6 µM; in assay [3], 30.7 µM; in assay [4] it was 16.6 µM; in assay [6], 27.9 µM. For the same molecule, the GI50 is 18.4 µM in [7], 18.1 µM in assay [8] and 10.5 µM in assay [9]. Also, the TGI in assay [1] is more than 100 µM; in assay [10], more than 100 µM; in [2], 65.8 µM; in assay [3], more than 100 µM; in assay [4] it was 32.8 µM; in assay [6], more than 100 µM. Besides, the TGI is 75.5 µM in assay [7], more than 100 µM in assay [8] and 41 µM in assay [9].

For the molecule `O=C(O)/C=C/c1cnc[nH]1`, the TGI was more than 500 µM in assay [1]; more than 500 µM in assay [10]; more than 500 µM in [2]; more than 500 µM in assay [3]; more than 232 µM in assay [4]; more than 500 µM in assay [6]. Also, the TGI in [8] and in assay [9] was more than 500 µM throughout. Besides, in assay [2], the GI50 was > 500 µM and 70 µM.
